ChEMBL document CHEMBL1201862, “PubChem BioAssay data set” (2004)
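Interpolation was linear, between the two tested concentrations surrounding the appropriate level; five concentrations were tested over 48 hours in 96-well plates. GI50 is the concentration that inhibits growth by half.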 Activity calls are given as the source filed them. Rule as the data show it: active = GI50 up to about 1.1 µM and inactive = higher.

Columns and labels:
Test in all cases: NCI anticancer screen, dose series, 48 h
A549 = system: A549
CAKI-1 = system: CAKI-1
COLO 205 = system: COLO 205
HCT-116 = system: HCT-116
HCT-15 = system: HCT-15
HT-29 = system: HT-29
KM12 = system: KM12
LOX IMVI = system: LOX IMVI
M14 = system: M14
MDA-MB-231 = system: MDA-MB-231
MDA-N = system: MDA-N
OVCAR-8 = system: OVCAR-8
SN12C = system: SN12C
SNB-19 = system: SNB-19
SR = system: SR
SW-620 = system: SW-620
U-251 = system: U-251
UACC-257 = system: UACC-257
UACC-62 = system: UACC-62
OVCAR-4 = system: OVCAR-4

Compound	GI50 (A549)	GI50 (CAKI-1)	GI50 (COLO 205)	GI50 (HCT-116)	GI50 (HCT-15)	GI50 (HT-29)	GI50 (KM12)	GI50 (LOX IMVI)	GI50 (M14)	GI50 (MDA-MB-231)	GI50 (MDA-N)	GI50 (OVCAR-8)	GI50 (SN12C)	GI50 (SNB-19)	GI50 (SR)	GI50 (SW-620)	GI50 (U-251)	GI50 (UACC-257)	GI50 (UACC-62)	GI50 (OVCAR-4)
Nc1n[n+]2cc(-c3ccccc3)n(CC(=O)c3ccccc3)c2s1	> 100 µM (inactive)	> 100 µM (inactive)	15.3 µM (inactive)	16.7 µM (inactive)	44.7 µM	27.2 µM (inactive)	19.8 µM (inactive)	17.9 µM (inactive)	21.3 µM (inactive)	29.5 µM (inactive)	34.4 µM (inactive)	52 µM (inactive)	42.6 µM (inactive)	21.7 µM (inactive)	18.4 µM (inactive)	23.2 µM (inactive)	16.1 µM (inactive)	25.5 µM (inactive)	30.5 µM (inactive)	–
COc1ccc(-c2nc(-c3cnccn3)n(COCCO)n2)cc1	> 100 µM (inactive)	–	> 100 µM (inactive)	> 100 µM (inactive)	> 100 µM	> 100 µM (inactive)	> 100 µM (inactive)	> 100 µM (inactive)	> 100 µM (inactive)	> 100 µM (inactive)	> 100 µM (inactive)	> 100 µM (inactive)	> 100 µM (inactive)	> 100 µM (inactive)	> 100 µM (inactive)	> 100 µM (inactive)	> 100 µM (inactive)	> 100 µM (inactive)	> 100 µM (inactive)	> 100 µM (inactive)
COc1ccc(N2C(=O)c3cc(C)cnc3S2(=O)=O)cc1	> 100 µM (inactive)	–	> 100 µM (inactive)	> 100 µM (inactive)	> 100 µM	> 100 µM (inactive)	> 100 µM (inactive)	> 100 µM (inactive)	–	> 100 µM (inactive)	> 100 µM (inactive)	> 100 µM (inactive)	> 100 µM (inactive)	> 100 µM (inactive)	> 100 µM (inactive)	> 100 µM (inactive)	> 100 µM (inactive)	–	> 100 µM (inactive)	> 100 µM (inactive)
COC(=O)c1ccccc1C1CN=NC12Cc1c(C)c3c(c(C)c1C2=O)CCC3 (configuration not stated)	> 100 µM (inactive)	> 100 µM (inactive)	> 100 µM (inactive)	37.6 µM (inactive)	> 100 µM	40.1 µM (inactive)	> 100 µM (inactive)	> 100 µM (inactive)	> 100 µM (inactive)	23.6 µM (inactive)	> 100 µM (inactive)	> 100 µM (inactive)	> 100 µM (inactive)	> 100 µM (inactive)	–	> 100 µM (inactive)	> 100 µM (inactive)	25.2 µM (inactive)	> 100 µM (inactive)	> 100 µM (inactive)
N#CC(Nc1ccccc1)c1ccc(C(C#N)Nc2ccccc2)cc1 (configuration not stated)	> 100 µM (inactive)	61.4 µM (inactive)	27.1 µM (inactive)	16.7 µM (inactive)	18.2 µM	20.8 µM (inactive)	> 100 µM (inactive)	1.17 µM (inactive)	13.7 µM (inactive)	> 100 µM (inactive)	13.2 µM (inactive)	> 100 µM (inactive)	46.8 µM (inactive)	44.5 µM (inactive)	–	20.2 µM (inactive)	25.4 µM (inactive)	81.3 µM (inactive)	3.57 µM (inactive)	> 100 µM (inactive)
CCOC(=O)c1cc([N+](=O)[O-])c(Sc2ncnc3nc[nH]c23)c([N+](=O)[O-])c1	20.5 µM (inactive)	2.37 µM (inactive)	1.66 µM (inactive)	1.87 µM (inactive)	2.48 µM	3.06 µM (inactive)	9.2 µM (inactive)	0.378 µM (active)	2.31 µM (inactive)	4.92 µM (inactive)	2.75 µM (inactive)	4.74 µM (inactive)	14.1 µM (inactive)	17.1 µM (inactive)	3.24 µM (inactive)	2.18 µM (inactive)	6.82 µM (inactive)	7.28 µM (inactive)	2.46 µM (inactive)	–
O=C(ON=c1c2ccccc2ccc2ccccc12)c1cc([N+](=O)[O-])cc([N+](=O)[O-])c1	49.8 µM (inactive)	–	> 100 µM (inactive)	87.3 µM (inactive)	53 µM	94.4 µM (inactive)	49 µM (inactive)	90.2 µM (inactive)	> 100 µM (inactive)	> 100 µM (inactive)	83.8 µM (inactive)	94.8 µM (inactive)	67.1 µM (inactive)	> 100 µM (inactive)	35.2 µM (inactive)	> 100 µM (inactive)	70.6 µM (inactive)	> 100 µM (inactive)	63.4 µM (inactive)	38.2 µM (inactive)
CC1SC2(CCCCC2)N(NC(=O)CSc2nc3ccc(Cl)cc3c(=O)n2-c2ccccc2)C1=O (configuration not stated)	28.8 µM (inactive)	37.1 µM (inactive)	13.8 µM (inactive)	14 µM (inactive)	18.7 µM	16.6 µM (inactive)	30.1 µM (inactive)	19.5 µM (inactive)	20 µM (inactive)	18.3 µM (inactive)	18.3 µM (inactive)	26.1 µM (inactive)	17.5 µM (inactive)	24.1 µM (inactive)	–	27.9 µM (inactive)	17.5 µM (inactive)	22.8 µM (inactive)	18 µM (inactive)	30.4 µM (inactive)
COC(=O)/C=C\C(C#N)(C#N)/N=C/c1ccc(Br)s1	21.2 µM (inactive)	2.45 µM (inactive)	2.31 µM (inactive)	4.89 µM (inactive)	2.18 µM	2.35 µM (inactive)	16.3 µM (inactive)	2.16 µM (inactive)	3.1 µM (inactive)	2.18 µM (inactive)	7.98 µM (inactive)	3.98 µM (inactive)	15.2 µM (inactive)	14.8 µM (inactive)	–	2.07 µM (inactive)	16 µM (inactive)	15.1 µM (inactive)	10.7 µM (inactive)	6.61 µM (inactive)
CN(C)c1ccc(C(c2ccc(Cl)cc2)c2ccc(N(C)C)cc2)cc1	> 100 µM (inactive)	> 100 µM (inactive)	34.7 µM (inactive)	> 100 µM (inactive)	> 100 µM	> 100 µM (inactive)	> 100 µM (inactive)	> 100 µM (inactive)	> 100 µM (inactive)	> 100 µM (inactive)	82.8 µM (inactive)	99.1 µM (inactive)	> 100 µM (inactive)	> 100 µM (inactive)	57.5 µM (inactive)	> 100 µM (inactive)	> 100 µM (inactive)	60.1 µM (inactive)	> 100 µM (inactive)	–
NC(=S)N/N=c1\cc(C(=O)Nc2ccc([N+](=O)[O-])cc2[N+](=O)[O-])oc2ccccc12	> 100 µM (inactive)	75.2 µM (inactive)	> 100 µM (inactive)	> 100 µM (inactive)	> 100 µM	> 100 µM (inactive)	> 100 µM (inactive)	> 100 µM (inactive)	> 100 µM (inactive)	> 100 µM (inactive)	> 100 µM (inactive)	> 100 µM (inactive)	> 100 µM (inactive)	> 100 µM (inactive)	–	> 100 µM (inactive)	> 100 µM (inactive)	> 100 µM (inactive)	> 100 µM (inactive)	> 100 µM (inactive)
